According to PubChem BioAssay (NCI):
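Interpolation was linear, between the two tested concentrations surrounding the appropriate level; five concentrations were tested over 48 hours in 96-well plates. TGI: concentration producing complete growth inhibition.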

Assays:
Test in all cases: NCI anticancer screen, dose series, 48 h
SK-MEL-28 melanoma = tested on: SK-MEL-28 melanoma
ACHN renal = tested on: ACHN renal
SK-MEL-5 melanoma = tested on: SK-MEL-5 melanoma
NCI-H522 lung = tested on: NCI-H522 lung
KM12 colon = tested on: KM12 colon
SNB-19 CNS = tested on: SNB-19 CNS
NCI-H226 lung = tested on: NCI-H226 lung
CCRF-CEM leukemia = tested on: CCRF-CEM leukemia
HOP-92 NSCLC = tested on: HOP-92 NSCLC
BT-549 breast = tested on: BT-549 breast
MALME-3M melanoma = tested on: MALME-3M melanoma
HCT-116 colon = tested on: HCT-116 colon
HT29 colon = tested on: HT29 colon
OVCAR-4 ovarian = tested on: OVCAR-4 ovarian
M14 melanoma = tested on: M14 melanoma
786-0 renal = tested on: 786-0 renal
MDA-MB-435 = tested on: MDA-MB-435
NCI-H23 lung = tested on: NCI-H23 lung
OVCAR-5 ovarian = tested on: OVCAR-5 ovarian
U251 CNS = tested on: U251 CNS
SF-295 CNS = tested on: SF-295 CNS
RPMI-8226 leukemia = tested on: RPMI-8226 leukemia
TK-10 renal = tested on: TK-10 renal
SF-268 CNS = tested on: SF-268 CNS
HL-60(TB) leukemia = tested on: HL-60(TB) leukemia
HCC-2998 colon = tested on: HCC-2998 colon
SF-539 CNS = tested on: SF-539 CNS
SW-620 colon = tested on: SW-620 colon
NCI/ADR-RES ovarian = tested on: NCI/ADR-RES ovarian
MDA-N = tested on: MDA-N
EKVX NSCLC = tested on: EKVX NSCLC
T-47D breast = tested on: T-47D breast
COLO 205 colon = tested on: COLO 205 colon
A498 renal = tested on: A498 renal
OVCAR-3 ovarian = tested on: OVCAR-3 ovarian
MOLT-4 leukemia = tested on: MOLT-4 leukemia
HCT-15 colon = tested on: HCT-15 colon
CAKI-1 renal = tested on: CAKI-1 renal
SK-OV-3 ovarian = tested on: SK-OV-3 ovarian
HS 578T breast = tested on: HS 578T breast
HOP-62 NSCLC = tested on: HOP-62 NSCLC
K-562 leukemia = tested on: K-562 leukemia
A549 NSCLC = tested on: A549 NSCLC
SN12C renal = tested on: SN12C renal
DU-145 prostate = tested on: DU-145 prostate
MDA-MB-231 breast = tested on: MDA-MB-231 breast
UO-31 renal = tested on: UO-31 renal
LOX IMVI melanoma = tested on: LOX IMVI melanoma
UACC-62 melanoma = tested on: UACC-62 melanoma
RXF 393 renal = tested on: RXF 393 renal
MCF7 breast = tested on: MCF7 breast
NCI-H460 lung = tested on: NCI-H460 lung
UACC-257 melanoma = tested on: UACC-257 melanoma
PC-3 prostate = tested on: PC-3 prostate
OVCAR-8 ovarian = tested on: OVCAR-8 ovarian
SK-MEL-2 melanoma = tested on: SK-MEL-2 melanoma
SR leukemia = tested on: SR leukemia
IGROV1 ovarian = tested on: IGROV1 ovarian
SNB-75 CNS = tested on: SNB-75 CNS

What does the source list for OC(c1cc(-c2ccc(Cl)cc2)nc2ccccc12)C1CCCCN1 (stereo not drawn)?
TGI (SK-MEL-28 melanoma): 3.53 µM; TGI (ACHN renal): 4.1 µM; TGI (SK-MEL-5 melanoma): 5.9 µM; TGI (NCI-H522 lung): 2.77 µM; TGI (KM12 colon): 5.42 µM; TGI (SNB-19 CNS): 37.6 µM; TGI (NCI-H226 lung): 39 µM; TGI (CCRF-CEM leukemia): 2.52 µM; TGI (HOP-92 NSCLC): 12.2 µM; TGI (BT-549 breast): 16 µM; TGI (MALME-3M melanoma): 2.94 µM; TGI (HCT-116 colon): 3.74 µM; TGI (HT29 colon): 3.82 µM; TGI (OVCAR-4 ovarian): 5.11 µM; TGI (M14 melanoma): 3.37 µM; TGI (786-0 renal): 3.92 µM; TGI (MDA-MB-435): 4.35 µM; TGI (NCI-H23 lung): 4.58 µM; TGI (OVCAR-5 ovarian): 4.94 µM; TGI (U251 CNS): 3.25 µM; TGI (SF-295 CNS): 3.67 µM; TGI (RPMI-8226 leukemia): 3.12 µM; TGI (TK-10 renal): 9.85 µM; TGI (SF-268 CNS): 4.51 µM; TGI (HL-60(TB) leukemia): 4.61 µM; TGI (HCC-2998 colon): 3.94 µM; TGI (SF-539 CNS): 3.52 µM; TGI (SW-620 colon): 3.69 µM; TGI (NCI/ADR-RES ovarian): 5.79 µM; TGI (MDA-N): 3.7 µM; TGI (EKVX NSCLC): 4.74 µM; TGI (T-47D breast): 2.96 µM; TGI (COLO 205 colon): 3.19 µM; TGI (A498 renal): 3.54 µM; TGI (OVCAR-3 ovarian): 3.98 µM; TGI (MOLT-4 leukemia): 4.52 µM; TGI (HCT-15 colon): 6.11 µM; TGI (CAKI-1 renal): 6.44 µM; TGI (SK-OV-3 ovarian): 5.5 µM; TGI (HS 578T breast): 4.34 µM; TGI (HOP-62 NSCLC): 3.13 µM; TGI (K-562 leukemia): 3.13 µM; TGI (A549 NSCLC): 3.53 µM; TGI (SN12C renal): 3.54 µM; TGI (DU-145 prostate): 3.45 µM; TGI (MDA-MB-231 breast): 3.58 µM; TGI (UO-31 renal): 2.45 µM; TGI (LOX IMVI melanoma): 2.09 µM; TGI (UACC-62 melanoma): 3.43 µM; TGI (RXF 393 renal): 0.315 µM; TGI (MCF7 breast): 3.03 µM; TGI (NCI-H460 lung): 4.76 µM; TGI (UACC-257 melanoma): 9.71 µM; TGI (PC-3 prostate): 3.79 µM; TGI (OVCAR-8 ovarian): 5.28 µM

Oc1ccc(Cc2nccc3cc(O)c(O)cc23)cc1O was tested. Which TGI (SK-MEL-28 melanoma) did it give?
The TGI was > 100 µM.

What about the TGI (ACHN renal) of the same compound?
Its TGI is > 100 µM.

What about the TGI (SK-MEL-5 melanoma) of the same compound?
The TGI was > 100 µM.

And the TGI (NCI-H522 lung)?
Its TGI is > 100 µM.

And the TGI (SK-MEL-2 melanoma)?
Its TGI is > 100 µM.

And the TGI (KM12 colon)?
The TGI was > 100 µM.

What about the TGI (SNB-19 CNS) of the same compound?
The TGI was > 100 µM.

And the TGI (NCI-H226 lung)?
The TGI was > 100 µM.

And the TGI (CCRF-CEM leukemia)?
Its TGI is 60.3 µM.

And the TGI (SR leukemia)?
The TGI was 96.8 µM.

And the TGI (HOP-92 NSCLC)?
The TGI was > 100 µM.

What about the TGI (BT-549 breast) of the same compound?
The TGI was > 100 µM.

And the TGI (MALME-3M melanoma)?
Its TGI is > 100 µM.

What about the TGI (HCT-116 colon) of the same compound?
The TGI was 35.1 µM.

What about the TGI (HT29 colon) of the same compound?
Its TGI is > 100 µM.

And the TGI (OVCAR-4 ovarian)?
The TGI was > 100 µM.

What about the TGI (M14 melanoma) of the same compound?
The TGI was 78.2 µM.

What about the TGI (786-0 renal) of the same compound?
Its TGI is > 100 µM.

And the TGI (MDA-MB-435)?
Its TGI is > 100 µM.

What about the TGI (NCI-H23 lung) of the same compound?
The TGI was > 100 µM.

And the TGI (OVCAR-5 ovarian)?
Its TGI is > 100 µM.

And the TGI (U251 CNS)?
Its TGI is > 100 µM.

What about the TGI (SF-295 CNS) of the same compound?
Its TGI is > 100 µM.

What about the TGI (RPMI-8226 leukemia) of the same compound?
The TGI was > 100 µM.

What about the TGI (TK-10 renal) of the same compound?
Its TGI is > 100 µM.

What about the TGI (SF-268 CNS) of the same compound?
The TGI was > 100 µM.

And the TGI (HL-60(TB) leukemia)?
The TGI was > 100 µM.

What about the TGI (SF-539 CNS) of the same compound?
The TGI was > 100 µM.

And the TGI (SW-620 colon)?
Its TGI is > 100 µM.

And the TGI (NCI/ADR-RES ovarian)?
Its TGI is > 100 µM.

And the TGI (MDA-N)?
Its TGI is > 100 µM.

What about the TGI (EKVX NSCLC) of the same compound?
The TGI was > 100 µM.

What about the TGI (T-47D breast) of the same compound?
Its TGI is > 100 µM.

And the TGI (COLO 205 colon)?
Its TGI is 51.3 µM.

And the TGI (A498 renal)?
Its TGI is > 100 µM.

And the TGI (OVCAR-3 ovarian)?
The TGI was > 100 µM.

And the TGI (MOLT-4 leukemia)?
Its TGI is > 100 µM.

And the TGI (HCT-15 colon)?
Its TGI is > 100 µM.

What about the TGI (CAKI-1 renal) of the same compound?
Its TGI is > 100 µM.

And the TGI (SK-OV-3 ovarian)?
The TGI was > 100 µM.

And the TGI (HS 578T breast)?
The TGI was > 100 µM.

And the TGI (HOP-62 NSCLC)?
Its TGI is > 100 µM.

And the TGI (K-562 leukemia)?
The TGI was > 100 µM.

And the TGI (A549 NSCLC)?
Its TGI is > 100 µM.

And the TGI (SN12C renal)?
Its TGI is > 100 µM.

What about the TGI (DU-145 prostate) of the same compound?
The TGI was > 100 µM.

What about the TGI (MDA-MB-231 breast) of the same compound?
The TGI was > 100 µM.

And the TGI (IGROV1 ovarian)?
The TGI was > 100 µM.

And the TGI (UO-31 renal)?
The TGI was > 100 µM.

And the TGI (LOX IMVI melanoma)?
Its TGI is > 100 µM.

What about the TGI (UACC-62 melanoma) of the same compound?
Its TGI is > 100 µM.

And the TGI (RXF 393 renal)?
The TGI was > 100 µM.

What about the TGI (MCF7 breast) of the same compound?
The TGI was 49.6 µM.

What about the TGI (NCI-H460 lung) of the same compound?
The TGI was > 100 µM.

And the TGI (UACC-257 melanoma)?
Its TGI is 87.6 µM.

What about the TGI (SNB-75 CNS) of the same compound?
The TGI was > 100 µM.

What about the TGI (PC-3 prostate) of the same compound?
Its TGI is > 100 µM.

And the TGI (OVCAR-8 ovarian)?
Its TGI is > 100 µM.
